Data published in patent US20230059009A1, “INHIBITORS OF LIN28 AND METHODS OF USE THEREOF” (The Regents of the University of California, priority 2019, published 2023).

Key:
H1975 = experiment: Cell viability, MTT assay, H1975; type: cell-based
Procedure: (§1) To measure cell viability, cell titer glow (CTG, Promega CellTiter-Glo 2.0 Assay) and MTT assays (SigmaAldrich, Cell Proliferation Kit I) were performed. Briefly, cells were serum starved overnight prior to seeding in 96-well plates. Following 24 h incubation, cells were treated with increasing concentrations of JGJ compounds for 96 hr. At assay read-out, CellTiter-Glo reagent was added and luminescence was measured after 10-minutes incubation at room temperature. For the MTT assay, MTT labeling reagent was added and incubated for 4 h. Subsequently, medium was removed and 50 μL DMSO was added to solubilize the crystals, and absorbance was measured at 570 nm. Cell viability was calculated as (Sample-Background)/(Control-Background).

SW480 [1] = experiment: Cell viability, MTT assay, SW480; type: cell-based; conditions: SW480 (Colon)
Procedure: as §1, with “(Sample-Background)/(Control-Background). Current standard of care drugs, Enzalutamide, Palbociclib and Cetuximab were used as comparative controls.” for “(Sample-Background)/(Control-Background).”

CYP 2D6 = CYP 2D6 (Homo sapiens, UniProt P10635); experiment: CYP inhibition 2D6; type: in vitro ADME; design: unit not given here; conditions: Conc. 30 uM
CYP 2D6, sequence (P10635 whole entry): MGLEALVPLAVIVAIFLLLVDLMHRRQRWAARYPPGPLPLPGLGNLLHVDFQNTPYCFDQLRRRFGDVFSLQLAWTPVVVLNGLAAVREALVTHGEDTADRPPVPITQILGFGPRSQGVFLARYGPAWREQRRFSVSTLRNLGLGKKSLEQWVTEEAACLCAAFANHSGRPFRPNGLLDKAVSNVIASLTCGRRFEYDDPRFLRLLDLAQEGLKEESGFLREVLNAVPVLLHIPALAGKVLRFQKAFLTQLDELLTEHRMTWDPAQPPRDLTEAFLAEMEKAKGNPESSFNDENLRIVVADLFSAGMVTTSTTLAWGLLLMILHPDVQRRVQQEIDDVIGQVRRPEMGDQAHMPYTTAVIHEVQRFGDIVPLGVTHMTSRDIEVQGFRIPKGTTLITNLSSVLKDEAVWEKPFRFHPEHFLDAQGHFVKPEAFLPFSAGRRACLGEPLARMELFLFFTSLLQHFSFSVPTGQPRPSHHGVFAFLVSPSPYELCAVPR

22RV1 = experiment: Cell viability, MTT assay, 22RV1; type: cell-based; conditions: 22RV1 (Prostate), 96 hr
Procedure: as §1

DU145 = experiment: Cell viability, MTT assay, DU145; type: cell-based; conditions: Homo sapiens, DU-145, DU145 (Prostate)
Procedure: as §1, with “(Sample-Background)/(Control-Background). Current standard of care drugs, Enzalutamide, Palbociclib and Cetuximab were used as comparative controls.” for “(Sample-Background)/(Control-Background).”

MDA-MB231 [2] = experiment: Cell viability, CTG, MDA-MB231; type: cell-based; conditions: Homo sapiens, MDA-MB-231, MDA-MB231 (Breast)
Procedure: as §1, with “(Sample-Background)/(Control-Background). Current standard of care drugs, Enzalutamide, Palbociclib and Cetuximab were used as comparative controls.” for “(Sample-Background)/(Control-Background).”

H23 = experiment: Cell viability, MTT assay, H23; type: cell-based
Procedure: as §1, with “(Sample-Background)/(Control-Background). Current standard of care drugs, Enzalutamide, Palbociclib and Cetuximab were used as comparative controls.” for “(Sample-Background)/(Control-Background).”

BT-549 = experiment: Cell viability, CTG, BT-549; type: cell-based; conditions: BT-549 (Breast)
Procedure: as §1, with “(Sample-Background)/(Control-Background). Current standard of care drugs, Enzalutamide, Palbociclib and Cetuximab were used as comparative controls.” for “(Sample-Background)/(Control-Background).”

HCT-116 = experiment: Cell viability, CTG, HCT-116; type: cell-based; conditions: HCT-116 (Colon)
Procedure: as §1, with “(Sample-Background)/(Control-Background). Current standard of care drugs, Enzalutamide, Palbociclib and Cetuximab were used as comparative controls.” for “(Sample-Background)/(Control-Background).”

[3] = Microsomal stability, Human; type: in vitro ADME; conditions: Conc. 30 uM; for CLint scaled at 30 uM / half-life at 30 uM: microsomes; for half-life at 30 uM: read-out: Microsomal stability T½
H460 = experiment: Cell viability, MTT assay, H460; type: cell-based
Procedure: as §1, with “(Sample-Background)/(Control-Background). Current standard of care drugs, Enzalutamide, Palbociclib and Cetuximab were used as comparative controls.” for “(Sample-Background)/(Control-Background).”

CYP 2C9 = CYP 2C9 (Homo sapiens, UniProt P11712); experiment: CYP inhibition 2C9; type: in vitro ADME; design: unit not given here; conditions: Conc. 30 uM
CYP 2C9, sequence (P11712 whole entry): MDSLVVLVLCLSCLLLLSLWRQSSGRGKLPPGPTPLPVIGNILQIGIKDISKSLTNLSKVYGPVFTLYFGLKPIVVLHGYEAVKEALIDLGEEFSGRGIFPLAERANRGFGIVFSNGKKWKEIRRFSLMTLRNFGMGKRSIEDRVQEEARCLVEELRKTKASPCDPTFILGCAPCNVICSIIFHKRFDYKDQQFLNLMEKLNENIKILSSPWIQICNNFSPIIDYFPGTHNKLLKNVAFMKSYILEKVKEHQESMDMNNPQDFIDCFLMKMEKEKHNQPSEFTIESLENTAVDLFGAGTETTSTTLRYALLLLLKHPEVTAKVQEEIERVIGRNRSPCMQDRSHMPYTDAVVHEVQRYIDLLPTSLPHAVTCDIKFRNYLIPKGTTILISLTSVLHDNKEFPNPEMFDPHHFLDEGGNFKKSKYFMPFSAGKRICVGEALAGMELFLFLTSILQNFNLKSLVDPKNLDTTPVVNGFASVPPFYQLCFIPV

Caco2 permeability = type: in vitro ADME; conditions: human, Caco-2, Conc. 30 uM; for recovery at 30 uM: read-out: Caco2 Mean A-B % Recovery
ASPC-1 = experiment: Cell viability, CTG, ASPC-1; type: cell-based
Procedure: as §1, with “(Sample-Background)/(Control-Background). Current standard of care drugs, Enzalutamide, Palbociclib and Cetuximab were used as comparative controls.” for “(Sample-Background)/(Control-Background).”

MCF7 = experiment: Cell viability, MTT assay, MCF7; type: cell-based; conditions: MCF7 (Breast)
Procedure: as §1, with “(Sample-Background)/(Control-Background). Current standard of care drugs, Enzalutamide, Palbociclib and Cetuximab were used as comparative controls.” for “(Sample-Background)/(Control-Background).”

LNCaP = experiment: Cell viability, MTT assay, LNCaP; type: cell-based; conditions: LNCaP (Prostate)
Procedure: as §1

A549 = experiment: Cell viability, MTT assay, A549; type: cell-based; conditions: A549 (Lung)
Procedure: as §1

SW480 [4] = experiment: Cell viability, CTG, SW480; type: cell-based; conditions: SW480 (Colon)
Procedure: as §1

CYP 1A2 = target: T1, CYP 1A2 (Homo sapiens, UniProt P05177); experiment: CYP inhibition 1A2; type: in vitro ADME; design: unit not given here; conditions: Conc. 30 uM
T1 sequence (P05177 1-516): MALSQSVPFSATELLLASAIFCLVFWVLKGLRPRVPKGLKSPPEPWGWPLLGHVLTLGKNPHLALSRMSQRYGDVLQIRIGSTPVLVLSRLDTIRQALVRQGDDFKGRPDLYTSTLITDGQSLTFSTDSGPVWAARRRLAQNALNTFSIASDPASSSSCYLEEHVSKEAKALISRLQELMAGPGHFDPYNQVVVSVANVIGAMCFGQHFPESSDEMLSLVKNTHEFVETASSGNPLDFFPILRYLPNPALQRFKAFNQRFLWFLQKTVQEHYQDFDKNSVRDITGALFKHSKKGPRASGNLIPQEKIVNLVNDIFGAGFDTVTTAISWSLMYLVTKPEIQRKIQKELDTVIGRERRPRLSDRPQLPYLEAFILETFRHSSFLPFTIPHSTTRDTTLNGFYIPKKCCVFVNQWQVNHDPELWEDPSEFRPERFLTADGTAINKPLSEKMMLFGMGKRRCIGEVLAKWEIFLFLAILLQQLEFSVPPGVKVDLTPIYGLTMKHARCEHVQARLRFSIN

CAPAN-1 = experiment: Cell viability, CTG, CAPAN-1; type: cell-based; conditions: CAPAN-1 (Pancreatic)
Procedure: as §1, with “(Sample-Background)/(Control-Background). Current standard of care drugs, Enzalutamide, Palbociclib and Cetuximab were used as comparative controls.” for “(Sample-Background)/(Control-Background).”

[5] = Microsomal stability, CD-1 Mouse; type: in vitro ADME; conditions: for CLint scaled at 30 uM / half-life at 30 uM: microsomes; for half-life at 30 uM: read-out: Microsomal stability T½
SW620 = experiment: Cell viability, MTT assay, SW620; type: cell-based
Procedure: as §1, with “(Sample-Background)/(Control-Background). Current standard of care drugs, Enzalutamide, Palbociclib and Cetuximab were used as comparative controls.” for “(Sample-Background)/(Control-Background).”

CYP 2C19 = CYP 2C19 (Homo sapiens, UniProt P33261); experiment: CYP inhibition 2C19; type: in vitro ADME; design: unit not given here; conditions: Conc. 30 uM
CYP 2C19, sequence (P33261 whole entry): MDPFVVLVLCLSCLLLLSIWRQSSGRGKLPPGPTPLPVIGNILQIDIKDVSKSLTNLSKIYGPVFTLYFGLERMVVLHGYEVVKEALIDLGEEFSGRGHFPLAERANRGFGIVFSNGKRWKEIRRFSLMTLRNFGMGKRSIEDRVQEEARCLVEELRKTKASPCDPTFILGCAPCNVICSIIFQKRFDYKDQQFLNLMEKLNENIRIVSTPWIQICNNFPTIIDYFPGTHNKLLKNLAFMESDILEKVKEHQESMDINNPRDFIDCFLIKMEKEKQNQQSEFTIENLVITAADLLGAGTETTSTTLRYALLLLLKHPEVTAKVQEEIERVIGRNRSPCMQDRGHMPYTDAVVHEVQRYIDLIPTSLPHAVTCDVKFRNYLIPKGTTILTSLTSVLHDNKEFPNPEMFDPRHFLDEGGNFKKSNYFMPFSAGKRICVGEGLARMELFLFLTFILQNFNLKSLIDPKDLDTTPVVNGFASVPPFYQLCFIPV

MDA-MB231 [6] = experiment: Cell viability, MTT assay, MDA-MB231; type: cell-based
Procedure: as §1, with “(Sample-Background)/(Control-Background). Current standard of care drugs, Enzalutamide, Palbociclib and Cetuximab were used as comparative controls.” for “(Sample-Background)/(Control-Background).”

H1568 = experiment: Cell viability, MTT assay, H1568; type: cell-based
Procedure: as §1, with “(Sample-Background)/(Control-Background). Current standard of care drugs, Enzalutamide, Palbociclib and Cetuximab were used as comparative controls.” for “(Sample-Background)/(Control-Background).”

[7] = Homo sapiens, NCI-H1975, H1975 (Lung)
[8] = Homo sapiens, NCI-H23, H23 (Lung)
[9] = Homo sapiens, NCI-H460, H460 (Lung)
[10] = Homo sapiens, ASPC1, ASPC-1 (Pancreatic)
[11] = Homo sapiens, SW-620, SW620 (Colon)
[12] = Homo sapiens, MDA-MB-231, MDA-MB231 (Breast)

Cc1cnc2ccc(-c3cccc(F)c3)nn12 [JGJ015, 6-(3-Fluorophenyl)-3-methylimidazo[1,2-b]pyridazine]
IC50 (H1975; [7]): 51 µM
IC50 (SW480 [1]; Homo sapiens): 53 µM
CYP inhibition 2D6 (CYP 2D6): 19.38
IC50 (22RV1; Homo sapiens): 209 µM
IC50 (DU145): 30 µM
IC50 (MDA-MB231 [2]): 75 µM
IC50 (H23; [8]): 62 µM
IC50 (BT-549; Homo sapiens): 48 µM
IC50 (HCT-116; Homo sapiens): 148 µM
Microsomal stability % Remaining at T30 [3]: T30 = 6.9%
CLint scaled at 30 uM [3]: 161 mL/min/kg
half-life at 30 uM [3]: 7.76 min
IC50 (H460; [9]): 594 µM
CYP inhibition 2C9 (CYP 2C9): 14.27
Papp A→B at 30 uM (Caco2 permeability): 24.1 ×10⁻⁶ cm/s
Papp B→A at 30 uM (Caco2 permeability): 21.1 ×10⁻⁶ cm/s
efflux ratio at 30 uM (Caco2 permeability): 0.874
recovery at 30 uM (Caco2 permeability): 67.3%
IC50 (ASPC-1; [10]): 157 µM
IC50 (MCF7; Homo sapiens): 59 µM
IC50 (LNCaP; Homo sapiens): 83 µM
IC50 (A549; Homo sapiens): 93 µM
IC50 (SW480 [4]; Homo sapiens): 110 µM
CYP inhibition 1A2 (CYP 1A2): 96.4
IC50 (CAPAN-1; Homo sapiens): 137 µM
Microsomal stability % Remaining at T30 ([5]; Conc. 30 uM): T30 = 2.3%
CLint scaled at 30 uM ([5]; Conc. 30 uM): 988 mL/min/kg
half-life at 30 uM ([5]; Conc. 30 uM): 5.52 min
IC50 (SW620; [11]): 62 µM
CYP inhibition 2C19 (CYP 2C19): 49.8
IC50 (MDA-MB231 [6]; [12]): 145 µM

CC(=O)Nc1cccc(-c2ccc3ncc(C)n3n2)c1 [JGJ007, N-(3-(3-Methylimidazo[1,2-b]pyridazin-6-yl)phenyl)acetamide]
IC50 (H1975; [7]): 31 µM
IC50 (SW480 [1]; Homo sapiens): 64 µM
CYP inhibition 2D6 (CYP 2D6): 54.08
IC50 (22RV1; Homo sapiens): 97 µM
IC50 (DU145): 5 µM
IC50 (MDA-MB231 [2]): 43 µM
IC50 (H23; [8]): 95 µM
IC50 (BT-549; Homo sapiens): 75 µM
IC50 (HCT-116; Homo sapiens): 148 µM
Microsomal stability % Remaining at T30 [3]: T30 = 72.8%
CLint scaled at 30 uM [3]: 19 mL/min/kg
half-life at 30 uM [3]: 65.6 min
IC50 (H460; [9]): 512 µM
CYP inhibition 2C9 (CYP 2C9): 24.65
Papp A→B at 30 uM (Caco2 permeability): 36.2 ×10⁻⁶ cm/s
Papp B→A at 30 uM (Caco2 permeability): 30 ×10⁻⁶ cm/s
efflux ratio at 30 uM (Caco2 permeability): 0.829
recovery at 30 uM (Caco2 permeability): 87%
IC50 (ASPC-1; [10]): 188 µM
IC50 (MCF7; Homo sapiens): 45 µM
IC50 (LNCaP; Homo sapiens): 54 µM
IC50 (A549; Homo sapiens): 97 µM
IC50 (SW480 [4]; Homo sapiens): 68 µM
CYP inhibition 1A2 (CYP 1A2): 97.3
IC50 (CAPAN-1; Homo sapiens): 91 µM
Microsomal stability % Remaining at T30 ([5]; Conc. 30 uM): T30 = 37.6%
CLint scaled at 30 uM ([5]; Conc. 30 uM): 257 mL/min/kg
half-life at 30 uM ([5]; Conc. 30 uM): 21.2 min
IC50 (SW620; [11]): 64 µM
CYP inhibition 2C19 (CYP 2C19): 37.08
IC50 (MDA-MB231 [6]; [12]): 39 µM
IC50 (H1568; NCI-H1568, H1568 (Lung)): 47 µM

CC(=O)N(C)c1cccc(-c2ccc3nnc(C)n3n2)c1 [LN1632]
IC50 (H1975; H1975 (Lung)): 91 µM
IC50 (SW480 [1]): 155 µM
IC50 (22RV1): 236 µM
IC50 (H23; H23 (Lung)): 167 µM
IC50 (BT-549): 151 µM
IC50 (HCT-116): 158 µM
IC50 (H460; H460 (Lung)): 172 µM
IC50 (ASPC-1; ASPC-1 (Pancreatic)): 111 µM
IC50 (MCF7): 144 µM
IC50 (LNCaP): 110 µM
IC50 (A549): 151 µM
IC50 (SW480 [4]): 168 µM
IC50 (CAPAN-1): 82 µM
Microsomal stability % Remaining at T30 ([5]; Conc. 100 uM): T30 = 90.2%
Microsomal stability CLint ([5]; Conc. 100 uM): kg) = 27 mL/min/kg
Microsomal stability T½ ([5]; Conc. 100 uM): T½ = 202 min
IC50 (SW620; SW620 (Colon)): 161 µM
IC50 (MDA-MB231 [6]; MDA-MB231 (Breast)): 136 µM
IC50 (H1568; H1568 (Lung)): 128 µM
